Results taken from patent publication US8247211B2, “Glycopeptide antibiotics” (American Cyanamid Company, priority 2001, dated 2012).
Values after ≈ are worked out from the molar mass of the structure shown.

Tests used:
Test in all cases: In vitro antibacterial evaluation: minimum inhibitory concentration (MIC), broth dilution method
Assay type in all cases: cell-based
Staphylococcus sp. = conditions: for MIC Staphylococcus aureus (ATCC 29213): strain ATCC 29213; for MIC Staphylococcus aureus (GC 1131): strain GC 1131; for MIC Staphylococcus aureus (GC 4541): strain GC 4541; for MIC Staphylococcus aureus (GC 4542): strain GC 4542; for MIC Staphylococcus aureus-SMITH (GC 4543): strain GC 4543; for MIC Staphylococcus aureus (GC 4544): strain GC 4544; for MIC Staphylococcus aureus (GC 4545): strain GC 4545; for MIC Staphylococcus haemolyticus (GC 4546): strain GC 4546; for MIC Coagulase Negative Staphylococcus (GC 4547): strain GC 4547; for MIC Coagulase Negative Staphylococcus (GC 4548): strain GC 4548; for MIC Coagulase Negative Staphylococcus (GC 4549): strain GC 4549; for MIC Coagulase Negative Staphylococcus (GC 4551): strain GC 4551; for MIC Coagulase Negative Staphylococcus (ID-3941): strain ID-3941
Experimental: (§1) The minimum inhibitory concentration (MIC), the lowest concentration of the antibiotic which inhibits growth of the test organism, is determined by the broth dilution method using Muller-Hinton II […] (Baltimore Biological Laboratories) following the recommendations of the National Committee for Clinical Laboratory Standards [Methods for dilution antimicrobial susceptibility tests for bacteria that grow aerobically, approved standard M7-A2, National Committee for Clinical Laboratory Standards, Villanova, Pa].
(§2) An inoculum level of 5×10^5 CFU/mL, and a range of antibiotic concentrations (64-0.06 μg/mL) is used. […] The test organisms include a spectrum of Gram-positive bacteria comprised of Staphylococcus sp., Streptococcus sp. and Enterococcus sp. These organisms include recent clinical isolates that are resistant to methicillin, penicillin and/or vancomycin.

Escherichia coli = conditions: 5×10^5 CFU/mL, 18 hours at 35° C.
Experimental: as §1, §2

Enterococcus sp. = conditions: broth dilution, 5×10^5 CFU/mL, 18 hours at 35° C.
Experimental: as §1, §2

Streptococcus sp. = conditions: broth dilution, 5×10^5 CFU/mL, 18 hours at 35° C.
Experimental: as §1, §2

[1] = broth dilution, 18 hours at 35° C.

Compound	MIC Staphylococcus aureus (ATCC 29213) (Staphylococcus sp.) [µg/mL]	MIC Staphylococcus aureus (GC 1131) (Staphylococcus sp.) [µg/mL]	MIC Staphylococcus aureus (GC 4541) (Staphylococcus sp.) [µg/mL]	MIC Staphylococcus aureus (GC 4542) (Staphylococcus sp.) [µg/mL]	MIC Staphylococcus aureus-SMITH (GC 4543) (Staphylococcus sp.; 18 hours at 35° C.) [µg/mL]	MIC Staphylococcus aureus-SMITH (GC 4543) (Staphylococcus sp.; [1]) [µg/mL]	MIC Staphylococcus aureus (GC 4544) (Staphylococcus sp.) [µg/mL]	MIC Staphylococcus aureus (GC 4545) (Staphylococcus sp.) [µg/mL]	MIC Staphylococcus haemolyticus (GC 4546) (Staphylococcus sp.) [µg/mL]	MIC Staphylococcus haemolyticus (GC 4546) (Staphylococcus sp.; [1]) [µg/mL]	MIC Coagulase Negative Staphylococcus (GC 4547) (Staphylococcus sp.) [µg/mL]	MIC Coagulase Negative Staphylococcus (GC 4547) (Staphylococcus sp.; [1]) [µg/mL]	MIC Coagulase Negative Staphylococcus (GC 4548) (Staphylococcus sp.) [µg/mL]	MIC Coagulase Negative Staphylococcus (GC 4548) (Staphylococcus sp.; [1]) [µg/mL]	MIC Coagulase Negative Staphylococcus (GC 4549) (Staphylococcus sp.) [µg/mL]	MIC Coagulase Negative Staphylococcus (GC 4549) (Staphylococcus sp.; [1]) [µg/mL]	MIC Coagulase Negative Staphylococcus (GC 4551) (Staphylococcus sp.) [µg/mL]	MIC Coagulase Negative Staphylococcus (GC 4551) (Staphylococcus sp.; [1]) [µg/mL]	MIC Escherichia coli (ATCC 25922) (Escherichia coli) [µg/mL]	MIC Enterococccus avium (GC 4558) (Enterococcus sp.) [µg/mL]	also measured
CC(c1ccccc1)C1NC(=O)CNC(=O)C(CO)NC(=O)C(C(O)C2CNC(=N)N2C2OC(CO)C(O)C(O)C2O)NC(=O)C(C(O)C2CNC(=N)N2)NC(=O)C(Cc2ccc(OC3OC(CO)C(OC4OC(COC(=O)OCc5ccccc5)C(O)C(O)C4O)C(O)C3O)cc2)NC1=O (stereo not drawn) [Example 101a, Cyclo[glycyl-β-methylphenylalanyl-O-[4-O-[6-O-[(phenylmethoxy)carbonyl]hexopyranosyl]-hexopyranosyl]tyrosyl-3-(2-iminoimidazolidin-4-yl)seryl-3-(3-hexopyranosyl-2-iminoimidazolidin-4-yl)serylseryl]]	2 (≈ 1.4 µM)	4 (≈ 2.8 µM)	2 (≈ 1.4 µM)	4 (≈ 2.8 µM)	8 (≈ 5.6 µM)	8 (≈ 5.6 µM)	4 (≈ 2.8 µM)	4 (≈ 2.8 µM)	1 (≈ 0.7 µM)	1 (≈ 0.7 µM)	1 (≈ 0.7 µM)	1 (≈ 0.7 µM)	1 (≈ 0.7 µM)	1 (≈ 0.7 µM)	1 (≈ 0.7 µM)	1 (≈ 0.7 µM)	2 (≈ 1.4 µM)	2 (≈ 1.4 µM)	64 (≈ 44.8 µM)	16 (≈ 11.2 µM)	MIC Coagulase Negative Staphylococcus (ID-3941) (Staphylococcus sp.): 1 µg/mL (≈ 0.7 µM); MIC Coagulase Negative Staphylococcus (ID-3941) (Staphylococcus sp.; [1]): 1 µg/mL (≈ 0.7 µM); MIC Enterococccus faecalis (ATCC 29212) (Enterococcus sp.): 16 µg/mL (≈ 11.2 µM); MIC Enterococccus faecalis (GC 4552) (Enterococcus sp.): 16 µg/mL (≈ 11.2 µM); MIC Enterococccus faecalis (GC 4553) (Enterococcus sp.): 16 µg/mL (≈ 11.2 µM); MIC Enterococccus faecalis (GC 4554) (Enterococcus sp.): 16 µg/mL (≈ 11.2 µM); MIC Enterococccus faecium (GC 2243) (Enterococcus sp.): 16 µg/mL (≈ 11.2 µM); MIC Enterococccus faecium (GC 4556) (Enterococcus sp.): 16 µg/mL (≈ 11.2 µM); MIC Enterococccus faecium (GC 4557) (Enterococcus sp.): 2 µg/mL (≈ 1.4 µM); MIC Enterococcus faecalis (GC 2242) (Enterococcus sp.): 8 µg/mL (≈ 5.6 µM); MIC Streptococcus agalactiae (GC 4564) (Streptococcus sp.): 1 µg/mL (≈ 0.7 µM); MIC Streptococcus pneumoniae (GC 4565) (Streptococcus sp.): <0.5 µg/mL; MIC Streptococcus pyogenes (ID-3187) (Streptococcus sp.): 1 µg/mL (≈ 0.7 µM)
N=C1NCC(C(O)C2NC(=O)C(Cc3ccc(OC4OC(CO)C(OC5OC(CO)C(O)C6OC7(OC56)C5CC6CC(C5)CC7C6)C(O)C4O)cc3)NC(=O)C(CC3CCCCC3)NC(=O)CNC(=O)C(CO)NC(=O)C(C(O)C3CNC(=N)N3C3OC(CO)C(O)C(O)C3O)NC2=O)N1 (stereo not shown) [Example 106a, Cyclo[3-cyclohexylalanyl-O-[4-O-[2,3-O-(2-adamantylidene)hexopyranosyl]hexopyranosyl]-tyrosyl-3-(2-iminoimidazolidin-4-yl)seryl-3-(3-hexopyranosyl-2-iminoimidazolidin-4-yl)-serylserylglycyl]]	2 (≈ 1.41 µM)	2 (≈ 1.41 µM)	2 (≈ 1.41 µM)	2 (≈ 1.41 µM)	2 (≈ 1.41 µM)	2 (≈ 1.41 µM)	4 (≈ 2.82 µM)	2 (≈ 1.41 µM)	2 (≈ 1.41 µM)	2 (≈ 1.41 µM)	2 (≈ 1.41 µM)	2 (≈ 1.41 µM)	1 (≈ 0.704 µM)	1 (≈ 0.704 µM)	1 (≈ 0.704 µM)	1 (≈ 0.704 µM)	2 (≈ 1.41 µM)	2 (≈ 1.41 µM)	32 (≈ 22.5 µM)	4 (≈ 2.82 µM)	MIC Staphylococcus aureus (GC 3051) (Staphylococcus sp.; strain GC 3051): 2 µg/mL (≈ 1.41 µM); MIC Staphylococcus aureus (GC 3053) (Staphylococcus sp.; strain GC 3053): 2 µg/mL (≈ 1.41 µM); MIC Escherichia coli (GC 4559) (Escherichia coli): 32 µg/mL (≈ 22.5 µM); MIC Escherichia coli (GC 4560) (Escherichia coli): 2 µg/mL (≈ 1.41 µM); MIC Enterococccus faecalis (ATCC 29212) (Enterococcus sp.): 8 µg/mL (≈ 5.64 µM); MIC Enterococccus faecalis (GC 2691) (Enterococcus sp.): 4 µg/mL (≈ 2.82 µM); MIC Enterococccus faecalis (GC 3059) (Enterococcus sp.): 8 µg/mL (≈ 5.64 µM); MIC Enterococccus faecalis (GC 4552) (Enterococcus sp.): 4 µg/mL (≈ 2.82 µM); MIC Enterococccus faecalis (GC 4553) (Enterococcus sp.): 4 µg/mL (≈ 2.82 µM); MIC Enterococccus faecalis (GC 4554) (Enterococcus sp.): 8 µg/mL (≈ 5.64 µM); MIC Enterococccus faecalis (GC 6189) (Enterococcus sp.): 4 µg/mL (≈ 2.82 µM); MIC Enterococccus faecium (GC 2243) (Enterococcus sp.): 4 µg/mL (≈ 2.82 µM); MIC Enterococccus faecium (GC 4556) (Enterococcus sp.): 8 µg/mL (≈ 5.64 µM); MIC Enterococccus faecium (GC 4557) (Enterococcus sp.): 2 µg/mL (≈ 1.41 µM); MIC Enterococcus faecalis (GC 2242) (Enterococcus sp.): 4 µg/mL (≈ 2.82 µM); MIC Streptococcus agalactiae (GC 4564) (Streptococcus sp.): 0.25 µg/mL (≈ 0.176 µM); MIC Streptococcus pneumoniae (GC 1894) (Streptococcus sp.): <0.06 µg/mL; MIC Streptococcus pneumoniae (GC 4565) (Streptococcus sp.): <0.06 µg/mL; MIC Streptococcus pneumonine (ATCC 6301) (Streptococcus sp.): 0.12 µg/mL (≈ 0.0845 µM); MIC Streptococcus pyogenes (GC 4563) (Streptococcus sp.): 0.25 µg/mL (≈ 0.176 µM)
